# Measurements as given in patent US5393897A, “Isolation and structure of spongistatins 5,7,8 and 9” (Arizona Board of Regents acting on behalf of Arizona State …, priority 1993, dated 1995).
# Where two headings read alike, the source gives them in different places.
# Legend:
# Type in all cases: cell-based
# [1] = tested on: 60 human tumor cell lines; assay: NCI in vitro primary screen, panel of 60 human tumor cell lines; conditions: for Compare Correlation Coefficient: TGI-centered mean graph profiles, spongistatin 1 as seed; for correlation of mean-graph fingerprint with microtubule-interactive antimitotics: pattern-recognition analyses, data not shown; for negative log molar TGI50: various human cancer cell lines
# Excerpt: (§1) Only two hundred years ago, many diseases ravaged humankind. Many of these diseases now have been controlled or eradicated. In the development of the means to treat or control these diseases, work with the appropriate common experimental animals was of critical importance. With the various types of cancers, and with the HIV virus, such work is presently ongoing. The research for the treatment of various types of cancer is coordinated in the United States by the National Cancer Institute (NCI). NCI, as a government entity, has been charged with assisting anti-cancer research. To establish whether a substance has anti-cancer activity, NCI has established a variety of protocols, one of which involves testing the candidate substance against a cell line panel containing 60 human tumor cell lines. This protocol has been verified and is generally accepted throughout the scientific community. This protocol and the established statistical means of evaluating the results obtained therefrom have been fully described in the literature. See Principles & Practice of Oncology PPO Updates, Volume 3, Number 10, October 1989, by Michael R. Boyd, M.D., Ph.D., for an in depth description of the test protocol. The statistical analysis is explained in "Display and Analysis of Patterns of Differential Activity of Drugs Against Human Tumor Cell Lines: Development of Means Graph and COMPARE Algorithm" Journal of the National Cancer Institute Reports Vol. 81, No. 14, Pg. 1088, Jul. 14, 1989, by K. D. Paull et al. Both of these references are incorporated herein by this reference thereto. The effectiveness and validity of the NCI in vitro protocol continues to be verified.
# ^a All compounds were tested in quadruplicate at five different con-
# entire panel of 60 human tumor cell lines comprising the NCI
# ^c Correlation coefficients from the Compare pattern-recognition
# algorithm were calculated by computer using the TGI-centered
# mean graph profiles of differential cellular sensitivities to 1, and
# 5. The TGI mean graph profile of 1 was used as the benchmark or
# "seed" for all of the comparisons.
# HOP-92 = assay: NCI cell line panel; conditions: Homo sapiens, Non-Small Cell Lung Cancer, read-out: Log10 GI50 (converted)
# Excerpt: as §1
# IGROV1 = assay: NCI cell line panel; conditions: Homo sapiens, IGROV-1, Ovarian Cancer; for GI50: read-out: Log10 GI50 (converted); for IC (TGI): read-out: Log10 TGI (converted)
# Excerpt: as §1
# MCF7/ADR-RES = assay: NCI cell line panel; conditions: Homo sapiens, Breast Cancer; for GI50: read-out: Log10 GI50 (converted)
# Excerpt: as §1
# MOLT-4 = assay: NCI cell line panel; conditions: Homo sapiens, Leukemia, read-out: Log10 GI50 (converted)
# Excerpt: as §1
# EKVX = assay: NCI cell line panel; conditions: Homo sapiens; for GI50: read-out: Log10 GI50 (converted)
# Excerpt: as §1
# HOP-62 = assay: NCI cell line panel; conditions: Homo sapiens
# Excerpt: as §1
# U251 = assay: NCI cell line panel; conditions: Homo sapiens, U-251; CNS Cancer; read-out: Log10 GI50 (converted)
# Excerpt: as §1
# 786-0 = assay: NCI cell line panel; conditions: Homo sapiens, Renal Cancer; for GI50: read-out: Log10 GI50 (converted); for IC (TGI): read-out: Log10 TGI (converted)
# Excerpt: as §1
# MCF7 = assay: NCI cell line panel; conditions: Homo sapiens, Breast Cancer; for IC (TGI): read-out: Log10 TGI (converted)
# Excerpt: as §1
# ACHN = assay: NCI cell line panel; conditions: Homo sapiens, Renal Cancer; for GI50: read-out: Log10 GI50 (converted)
# Excerpt: as §1
# HS 578T = assay: NCI cell line panel; conditions: Homo sapiens; for GI50: read-out: Log10 GI50 (converted)
# Excerpt: as §1
# UO-31 = assay: NCI cell line panel; conditions: Homo sapiens
# Excerpt: as §1
# NCI-H226 = assay: NCI cell line panel; conditions: Homo sapiens, Non-Small Cell Lung Cancer, read-out: Log10 GI50 (converted)
# Excerpt: as §1
# SK-OV-3 = assay: NCI cell line panel; conditions: Homo sapiens
# Excerpt: as §1
# NCI-H322M = assay: NCI cell line panel; conditions: Homo sapiens, Non-Small Cell Lung Cancer; for GI50: read-out: Log10 GI50 (converted)
# Excerpt: as §1
# MALME-3M = assay: NCI cell line panel; conditions: Homo sapiens, read-out: Log10 GI50 (converted)
# Excerpt: as §1
# NCI-H460 = assay: NCI cell line panel; conditions: Homo sapiens
# Excerpt: as §1
# KM12 = assay: NCI cell line panel; conditions: Homo sapiens, KM12, read-out: Log10 GI50 (converted)
# Excerpt: as §1
# HT29 = assay: NCI cell line panel; conditions: Homo sapiens, HT-29; Colon Cancer; read-out: Log10 GI50 (converted)
# Excerpt: as §1
# SK-MEL-28 = assay: NCI cell line panel; conditions: Homo sapiens, SK-MEL-28, read-out: Log10 GI50 (converted)
# Excerpt: as §1
# M14 = assay: NCI cell line panel; conditions: Homo sapiens, Melanoma, read-out: Log10 GI50 (converted)
# Excerpt: as §1
# SW-620 = assay: NCI cell line panel; conditions: Homo sapiens, SW-620, read-out: Log10 GI50 (converted)
# Excerpt: as §1
# UACC-62 = assay: NCI cell line panel; conditions: Homo sapiens, UACC-62, read-out: Log10 GI50 (converted)
# Excerpt: as §1
# SK-MEL-2 = assay: NCI cell line panel; conditions: Homo sapiens, Melanoma, read-out: Log10 GI50 (converted)
# Excerpt: as §1
# HCT-116 = assay: NCI cell line panel; conditions: Homo sapiens, Colon Cancer, read-out: Log10 GI50 (converted)
# Excerpt: as §1
# Melanoma = assay: NCI cell line panel, melanoma lines, value not assignable to a single line; conditions: Homo sapiens, 7 values printed for 8 cell lines, in printed order, read-out: Log10 TGI (converted)
# Excerpt: as §1, with “The statistical analysis is explained in "Display and Analysis of Patterns of Differential Activity of Drugs Against Human Tumor Cell Lines: Development of Means Graph and COMPARE Algorithm" Journal of the National Cancer Institute Reports Vol. 81, No. 14, Pg. 1088, Jul. 14, 1989, by K. D. Paull et al. Both of these references are incorporated herein by this reference thereto. The effectiveness and validity of the NCI in vitro protocol continues to be verified.” left out
# [2] = Homo sapiens, NCI 60 cell line panel, read-out: panel mean GI50
# [3] = Homo sapiens, panel mean graph midpoint, read-out: MG-MID, Log10 GI50 (converted)
# [4] = Homo sapiens, quadruplicate, five concentrations, standard errors averaged less than 15% of means, read-out: Mean Panel GI50
# [5] = read-out: Log10 TGI (converted)
structure (smiles),measurement,setting,value
C=C(Cl)/C=C/C(O)CC(=C)CC1OC2C(C)C(OC(=O)CC3CC(O)CC4(CC(C)(O)CC(C=C5COC(C(C)C(=O)CC6CC(OC)CC7(CC(O)CC(/C=C\CCCC8OC(O)(CC(O)C8C)C2O)O7)O6)C5C)O4)O3)C1O (centres unmarked) [spongistatin 5],potency and specificity against NCI human cancer cell lines,[1],remarkably potent and specific
same,LC50,"[1]; Homo sapiens, read-out: MG-MID, Log10 LC50 (converted)",79.4 nM
same,GI50,[1]; [2],0.1 nM
same,GI50,[1]; [3],0.0631 nM
same,IC (TGI),"[1]; Homo sapiens, panel mean graph midpoint, read-out: MG-MID, Log10 TGI (converted)",13.8 nM
same,GI50,[1]; [4],0.123 nM
same,Compare Correlation Coefficient,[1],0.92
same,correlation of mean-graph fingerprint with microtubule-interactive antimitotics,[1],closely correlated
same,negative log molar TGI50,[1],approximately ten
same,GI50,HOP-92,1.41 nM
same,GI50,IGROV1,0.141 nM
same,IC (TGI),IGROV1,95.5 nM
same,GI50,MCF7/ADR-RES,0.912 nM
same,GI50,MOLT-4,0.0372 nM
same,GI50,EKVX,0.182 nM
same,GI50,"HOP-62; HOP-62, Non-Small Cell Lung Cancer, read-out: Log10 GI50 (converted)",0.151 nM
same,GI50,U251,0.0617 nM
same,GI50,786-0,0.0251 nM
same,IC (TGI),786-0,1.2 nM
same,IC (TGI),MCF7,39.8 nM
same,GI50,ACHN,0.562 nM
same,GI50,HS 578T; Breast Cancer,0.437 nM
same,GI50,"UO-31; UO-31, read-out: Log10 GI50 (converted)",0.427 nM
same,GI50,NCI-H226,0.759 nM
same,GI50,"SK-OV-3; SK-OV-3, Ovarian Cancer, read-out: Log10 GI50 (converted)",0.191 nM
same,GI50,NCI-H322M,0.0891 nM
C=C/C=C/C(O)CC(=C)CC1OC2C(C)C(OC(=O)CC3CC(O)CC4(CC(C)(O)CC(C=C5COC(C(C)C(=O)CC6CC(OC)CC7(CC(O)CC(/C=C\CCCC8OC(O)(CC(O)C8C)C2O)O7)O6)C5C)O4)O3)C1O (centres unmarked) [spongistatin 7],potency and specificity against NCI human cancer cell lines,[1],remarkably potent and specific
same,GI50,[1]; [2],0.1 nM
same,GI50,[1]; [3],1.17 nM
same,GI50,[1]; [4],1.01 nM
same,Compare Correlation Coefficient,[1],0.81
same,correlation of mean-graph fingerprint with microtubule-interactive antimitotics,[1],closely correlated
same,negative log molar TGI50,[1],approximately ten
same,GI50,HOP-92,5.25 nM
same,GI50,IGROV1,0.617 nM
same,IC (TGI),IGROV1,67.6 nM
same,GI50,MALME-3M,0.398 nM
same,GI50,"NCI-H460; NCI-H460, read-out: Log10 GI50 (converted)",2.09 nM
same,IC (TGI),"NCI-H460; NCI-H460, Non-Small Cell Lung Cancer, read-out: Log10 TGI (converted)",100 nM
same,GI50,KM12,0.219 nM
same,GI50,MCF7/ADR-RES,77.6 nM
same,IC (TGI),MCF7/ADR-RES; [5],100 nM
same,GI50,MOLT-4,0.575 nM
same,GI50,HT29,1.51 nM
same,GI50,EKVX; Non-Small Cell Lung Cancer,41.7 nM
same,IC (TGI),"EKVX; Non-Small Cell Lung Cancer, read-out: Log10 TGI (converted)",100 nM
same,GI50,"HOP-62; HOP-62, read-out: Log10 GI50 (converted)",1 nM
same,GI50,U251,0.759 nM
same,GI50,SK-MEL-28,1.29 nM
same,GI50,786-0,2 nM
same,IC (TGI),786-0,100 nM
same,GI50,M14,0.49 nM
same,GI50,MCF7; read-out: Log10 GI50 (converted),0.17 nM
same,IC (TGI),MCF7,100 nM
same,GI50,ACHN,10 nM
same,IC (TGI),ACHN; [5],100 nM
same,GI50,SW-620,0.389 nM
same,GI50,UACC-62,0.309 nM
same,IC (TGI),"HS 578T; Breast Cancer, read-out: Log10 TGI (converted)",100 nM
same,GI50,HS 578T,1.29 nM
same,GI50,"UO-31; UO-31, Renal Cancer, read-out: Log10 GI50 (converted)",24 nM
same,GI50,NCI-H226,2 nM
same,GI50,"SK-OV-3; SK-OV-3, read-out: Log10 GI50 (converted)",1 nM
same,GI50,SK-MEL-2,0.347 nM
same,GI50,HCT-116,0.288 nM
same,GI50,NCI-H322M,3.24 nM
same,IC (TGI),NCI-H322M; [5],100 nM
same,IC (TGI),Melanoma,46.8 nM
